Results taken from publication PMC4823954, “From fighting depression to conquering tumors: a novel tricyclic thiazepine compound as a tubulin polymerization inhibitor” (Cell Death & Disease, 2016).

Assays:
Assay in all cases: KINOMEscan
Type in all cases: binding
Conditions in all cases: read-out: % Ctrl
PRKX = biological target: T1, PRKX (Homo sapiens, UniProt P51817)
T1 construct: purchased DiscoveRx KINOMEscan
Experimental: (§1) The binding assay for 442 non-mutant kinases was performed using KINOMEscan (DiscoveRx Corporation, Fremont, CA, USA) as reported previously.[58], [59] TBPT was screened at concentrations of 5 and 10 μM to identify the affected kinases. KINOMEscan is based on a competition reaction that quantitatively measures the ability of a test compound to compete with an active site-directed ligand for binding to the kinase active site. […] After the assay plates were incubated with shaking for 1 h, the liganded beads were washed with washing buffer (1 × PBS and 0.05% Tween 20). Then, the beads were re-suspended in elution buffer (1 × PBS, 0.05% Tween 20, and 0.5 μM ligand) and incubated with shaking for 30 min. The kinase concentration in the eluates was measured via qPCR. The results are represented as ‘%Ctrl', which was calculated using the following formula: (test compound signal–positive control signal)/(DMSO signal–positive control signal) × 100%. A lower % Ctrl indicates stronger binding to the kinase active site.

[1] = biological target: T2, JAK2(JH1domain-catalytic) (Homo sapiens, UniProt O60674)
T2 construct: JAK2(JH1domain-catalytic); purchased DiscoveRx KINOMEscan
Experimental: as §1

TRKB = biological target: T3, TRKB (Homo sapiens, UniProt Q16620)
T3 construct: purchased DiscoveRx KINOMEscan
T3 sequence (Q16620 32-822): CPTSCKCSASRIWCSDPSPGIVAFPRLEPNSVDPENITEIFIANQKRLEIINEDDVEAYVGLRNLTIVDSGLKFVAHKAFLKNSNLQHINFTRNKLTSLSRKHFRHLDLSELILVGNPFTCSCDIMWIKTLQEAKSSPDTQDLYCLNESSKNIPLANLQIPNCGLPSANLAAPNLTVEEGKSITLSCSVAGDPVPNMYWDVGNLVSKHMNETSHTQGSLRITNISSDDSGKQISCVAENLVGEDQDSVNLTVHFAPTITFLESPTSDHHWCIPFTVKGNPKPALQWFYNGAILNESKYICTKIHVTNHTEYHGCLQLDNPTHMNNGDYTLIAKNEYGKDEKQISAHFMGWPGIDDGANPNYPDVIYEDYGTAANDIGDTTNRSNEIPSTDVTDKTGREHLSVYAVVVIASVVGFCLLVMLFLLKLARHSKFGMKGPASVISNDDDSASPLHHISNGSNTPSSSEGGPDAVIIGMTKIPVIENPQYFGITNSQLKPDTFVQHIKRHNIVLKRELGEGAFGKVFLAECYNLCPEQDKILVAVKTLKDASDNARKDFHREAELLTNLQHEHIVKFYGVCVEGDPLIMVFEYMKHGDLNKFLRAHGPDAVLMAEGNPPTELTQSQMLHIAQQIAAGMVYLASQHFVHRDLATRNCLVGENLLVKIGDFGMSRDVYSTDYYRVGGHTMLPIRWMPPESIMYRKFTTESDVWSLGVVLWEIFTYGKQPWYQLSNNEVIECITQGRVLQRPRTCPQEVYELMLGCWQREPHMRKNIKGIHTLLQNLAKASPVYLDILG
Experimental: as §1

HCK = biological target: T4, HCK (Homo sapiens, UniProt P08631)
T4 construct: purchased DiscoveRx KINOMEscan
Experimental: as §1

PIM3 = biological target: T5, PIM3 (Homo sapiens, UniProt Q86V86)
T5 construct: purchased DiscoveRx KINOMEscan
Experimental: as §1

CLK2 = biological target: T6, CLK2 (Homo sapiens, UniProt P49760)
T6 construct: purchased DiscoveRx KINOMEscan
T6 sequence (P49760 whole entry): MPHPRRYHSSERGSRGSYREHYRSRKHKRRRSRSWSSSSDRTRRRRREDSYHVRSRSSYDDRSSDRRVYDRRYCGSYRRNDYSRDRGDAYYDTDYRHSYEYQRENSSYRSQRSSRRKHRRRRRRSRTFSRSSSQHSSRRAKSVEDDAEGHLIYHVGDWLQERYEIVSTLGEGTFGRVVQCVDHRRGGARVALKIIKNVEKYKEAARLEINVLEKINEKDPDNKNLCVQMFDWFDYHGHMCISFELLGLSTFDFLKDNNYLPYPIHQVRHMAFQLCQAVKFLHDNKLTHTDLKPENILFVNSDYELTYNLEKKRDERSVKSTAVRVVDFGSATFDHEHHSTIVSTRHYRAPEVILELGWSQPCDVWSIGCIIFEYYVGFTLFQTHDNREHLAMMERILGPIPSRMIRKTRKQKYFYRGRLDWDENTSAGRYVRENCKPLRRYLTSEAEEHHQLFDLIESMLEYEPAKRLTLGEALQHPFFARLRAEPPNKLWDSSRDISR
Experimental: as §1

RIOK3 = biological target: T7, RIOK3 (Homo sapiens, UniProt O14730)
T7 construct: purchased DiscoveRx KINOMEscan
Experimental: as §1

ERBB3 = biological target: T8, ERBB3 (Homo sapiens, UniProt P21860)
T8 construct: purchased DiscoveRx KINOMEscan
Experimental: as §1

CDC2L5 = biological target: T9, CDC2L5 (Homo sapiens, UniProt Q14004)
T9 construct: purchased DiscoveRx KINOMEscan
Experimental: as §1

MKNK1 = biological target: T10, MKNK1 (Homo sapiens, UniProt Q9BUB5)
T10 construct: purchased DiscoveRx KINOMEscan
Experimental: as §1

ERK4 = biological target: T11, ERK4 (Homo sapiens, UniProt P31152)
T11 construct: purchased DiscoveRx KINOMEscan
Experimental: as §1

SNARK = biological target: T12, SNARK (Homo sapiens, UniProt Q9H093)
T12 construct: purchased DiscoveRx KINOMEscan
Experimental: as §1

[2] = biological target: T13, ABL1(Q252H)-nonphosphorylated (Homo sapiens, UniProt P00519, Q252H)
T13 construct: purchased DiscoveRx KINOMEscan
Experimental: as §1

PIP5K2C = biological target: T14, PIP5K2C (Homo sapiens, UniProt Q8TBX8)
T14 construct: purchased DiscoveRx KINOMEscan
Experimental: as §1

MARK1 = biological target: T15, MARK1 (Homo sapiens, UniProt Q9P0L2)
T15 construct: purchased DiscoveRx KINOMEscan
Experimental: as §1

DAPK3 = biological target: T16, DAPK3 (Homo sapiens, UniProt O43293)
T16 construct: purchased DiscoveRx KINOMEscan
Experimental: as §1

MTOR = biological target: T17, MTOR (Homo sapiens, UniProt P42345)
T17 construct: purchased DiscoveRx KINOMEscan
Experimental: as §1

[3] = biological target: T18, ABL1(T315I)-phosphorylated (Homo sapiens, UniProt P00519, T315I)
T18 construct: purchased DiscoveRx KINOMEscan
Experimental: as §1

NEK6 = biological target: T19, NEK6 (Homo sapiens, UniProt Q9HC98)
T19 construct: purchased DiscoveRx KINOMEscan
Experimental: as §1

MLK3 = biological target: T20, MLK3 (Homo sapiens, UniProt Q16584)
T20 construct: purchased DiscoveRx KINOMEscan
Experimental: as §1

CDC2L1 = biological target: T21, CDC2L1 (Homo sapiens, UniProt P21127)
T21 construct: purchased DiscoveRx KINOMEscan
T21 sequence (P21127 whole entry): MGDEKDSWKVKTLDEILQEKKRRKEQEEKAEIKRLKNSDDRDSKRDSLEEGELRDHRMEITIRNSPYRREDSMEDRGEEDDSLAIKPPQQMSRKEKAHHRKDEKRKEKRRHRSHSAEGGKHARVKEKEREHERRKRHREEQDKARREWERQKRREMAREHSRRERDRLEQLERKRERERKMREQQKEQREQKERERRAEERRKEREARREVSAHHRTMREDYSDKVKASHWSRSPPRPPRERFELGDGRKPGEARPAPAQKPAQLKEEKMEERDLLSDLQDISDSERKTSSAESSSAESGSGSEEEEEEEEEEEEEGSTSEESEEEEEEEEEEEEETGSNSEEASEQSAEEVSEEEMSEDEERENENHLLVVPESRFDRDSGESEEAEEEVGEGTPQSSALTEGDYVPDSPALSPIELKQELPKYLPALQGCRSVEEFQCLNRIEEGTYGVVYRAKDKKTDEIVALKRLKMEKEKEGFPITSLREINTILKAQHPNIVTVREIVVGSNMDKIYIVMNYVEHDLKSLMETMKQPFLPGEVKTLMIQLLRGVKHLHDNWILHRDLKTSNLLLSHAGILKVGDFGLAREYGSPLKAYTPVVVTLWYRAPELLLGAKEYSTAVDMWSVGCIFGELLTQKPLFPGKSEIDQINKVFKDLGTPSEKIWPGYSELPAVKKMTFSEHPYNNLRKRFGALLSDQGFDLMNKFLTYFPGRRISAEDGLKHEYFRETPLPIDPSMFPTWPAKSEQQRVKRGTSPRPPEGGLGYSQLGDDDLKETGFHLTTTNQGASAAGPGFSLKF
Experimental: as §1

MAP3K15 = biological target: T22, MAP3K15 (Homo sapiens, UniProt Q6ZN16)
T22 construct: purchased DiscoveRx KINOMEscan
Experimental: as §1

TRKC = biological target: T23, TRKC (Homo sapiens, UniProt Q16288)
T23 construct: purchased DiscoveRx KINOMEscan
T23 sequence (Q16288 32-839): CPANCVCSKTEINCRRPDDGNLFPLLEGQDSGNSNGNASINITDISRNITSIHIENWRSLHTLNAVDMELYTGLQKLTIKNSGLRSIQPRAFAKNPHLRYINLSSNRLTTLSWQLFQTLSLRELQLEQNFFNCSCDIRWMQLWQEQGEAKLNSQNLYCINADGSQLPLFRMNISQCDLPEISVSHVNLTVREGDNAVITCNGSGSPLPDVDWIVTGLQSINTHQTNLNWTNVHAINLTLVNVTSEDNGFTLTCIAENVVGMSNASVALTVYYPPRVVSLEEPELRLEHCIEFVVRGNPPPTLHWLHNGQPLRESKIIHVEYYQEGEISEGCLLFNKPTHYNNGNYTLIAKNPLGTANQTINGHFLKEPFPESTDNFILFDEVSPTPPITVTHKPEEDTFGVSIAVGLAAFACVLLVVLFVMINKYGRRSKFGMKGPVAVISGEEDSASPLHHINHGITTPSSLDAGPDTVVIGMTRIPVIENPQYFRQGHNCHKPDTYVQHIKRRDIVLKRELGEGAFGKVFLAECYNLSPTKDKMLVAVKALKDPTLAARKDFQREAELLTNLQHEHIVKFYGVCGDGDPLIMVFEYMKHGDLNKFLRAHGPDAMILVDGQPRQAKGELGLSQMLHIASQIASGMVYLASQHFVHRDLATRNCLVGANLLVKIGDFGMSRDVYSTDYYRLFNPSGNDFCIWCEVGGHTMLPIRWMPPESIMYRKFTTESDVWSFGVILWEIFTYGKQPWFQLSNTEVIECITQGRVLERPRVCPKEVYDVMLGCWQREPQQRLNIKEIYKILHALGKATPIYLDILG
Experimental: as §1

PIP5K1A = biological target: T24, PIP5K1A (Homo sapiens, UniProt Q99755)
T24 construct: purchased DiscoveRx KINOMEscan
Experimental: as §1

CDK7 = biological target: T25, CDK7 (Homo sapiens, UniProt P50613)
T25 construct: purchased DiscoveRx KINOMEscan
T25 sequence (P50613 whole entry): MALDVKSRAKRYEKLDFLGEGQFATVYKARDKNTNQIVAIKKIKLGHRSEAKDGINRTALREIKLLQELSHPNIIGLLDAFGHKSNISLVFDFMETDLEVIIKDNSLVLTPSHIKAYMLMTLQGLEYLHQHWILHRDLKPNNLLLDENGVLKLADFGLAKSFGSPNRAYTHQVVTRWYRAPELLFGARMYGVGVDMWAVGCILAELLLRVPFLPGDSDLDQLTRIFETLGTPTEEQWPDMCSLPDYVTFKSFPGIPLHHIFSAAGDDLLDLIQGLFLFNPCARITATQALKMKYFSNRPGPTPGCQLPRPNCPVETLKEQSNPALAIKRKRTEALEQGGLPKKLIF
Experimental: as §1

MST1R = biological target: T26, MST1R (Homo sapiens, UniProt Q04912)
T26 construct: purchased DiscoveRx KINOMEscan
Experimental: as §1

CAMK1 = biological target: T27, CAMK1 (Homo sapiens, UniProt Q14012)
T27 construct: purchased DiscoveRx KINOMEscan
Experimental: as §1

PIK3CA(E545K) = biological target: T28, PIK3CA(E545K) (Homo sapiens, UniProt P42336, E545K)
T28 construct: purchased DiscoveRx KINOMEscan
T28 sequence (P42336 whole entry E545K): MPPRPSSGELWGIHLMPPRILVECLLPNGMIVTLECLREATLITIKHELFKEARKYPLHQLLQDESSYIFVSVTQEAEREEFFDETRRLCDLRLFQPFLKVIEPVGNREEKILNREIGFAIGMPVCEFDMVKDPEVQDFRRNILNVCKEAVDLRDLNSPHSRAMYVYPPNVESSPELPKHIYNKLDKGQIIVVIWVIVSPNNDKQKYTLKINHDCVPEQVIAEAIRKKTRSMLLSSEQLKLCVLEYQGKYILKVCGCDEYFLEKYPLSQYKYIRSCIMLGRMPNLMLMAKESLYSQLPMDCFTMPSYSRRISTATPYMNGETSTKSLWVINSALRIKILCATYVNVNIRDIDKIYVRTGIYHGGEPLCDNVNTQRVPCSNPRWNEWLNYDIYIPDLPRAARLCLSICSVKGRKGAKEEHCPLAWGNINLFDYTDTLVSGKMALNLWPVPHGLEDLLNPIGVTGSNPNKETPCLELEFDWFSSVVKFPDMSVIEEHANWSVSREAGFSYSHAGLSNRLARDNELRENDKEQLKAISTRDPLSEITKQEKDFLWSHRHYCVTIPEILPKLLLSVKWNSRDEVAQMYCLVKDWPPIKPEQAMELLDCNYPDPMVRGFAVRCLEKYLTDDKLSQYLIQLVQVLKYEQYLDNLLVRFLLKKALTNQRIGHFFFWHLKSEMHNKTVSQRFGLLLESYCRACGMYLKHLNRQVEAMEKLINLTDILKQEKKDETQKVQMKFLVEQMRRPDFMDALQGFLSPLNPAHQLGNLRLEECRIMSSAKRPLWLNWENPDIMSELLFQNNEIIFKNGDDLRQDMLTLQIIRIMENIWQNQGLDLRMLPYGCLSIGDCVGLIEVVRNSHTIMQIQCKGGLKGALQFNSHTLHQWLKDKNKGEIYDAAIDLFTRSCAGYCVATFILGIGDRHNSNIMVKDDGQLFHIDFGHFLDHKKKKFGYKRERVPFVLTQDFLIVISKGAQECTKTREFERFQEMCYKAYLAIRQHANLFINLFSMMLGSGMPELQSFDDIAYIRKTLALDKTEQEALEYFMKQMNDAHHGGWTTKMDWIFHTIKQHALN
Experimental: as §1

PIP5K2B = biological target: T29, PIP5K2B (Homo sapiens, UniProt P78356)
T29 construct: purchased DiscoveRx KINOMEscan
Experimental: as §1

CLK4 = biological target: T30, CLK4 (Homo sapiens, UniProt Q9HAZ1)
T30 construct: purchased DiscoveRx KINOMEscan
T30 sequence (Q9HAZ1 whole entry): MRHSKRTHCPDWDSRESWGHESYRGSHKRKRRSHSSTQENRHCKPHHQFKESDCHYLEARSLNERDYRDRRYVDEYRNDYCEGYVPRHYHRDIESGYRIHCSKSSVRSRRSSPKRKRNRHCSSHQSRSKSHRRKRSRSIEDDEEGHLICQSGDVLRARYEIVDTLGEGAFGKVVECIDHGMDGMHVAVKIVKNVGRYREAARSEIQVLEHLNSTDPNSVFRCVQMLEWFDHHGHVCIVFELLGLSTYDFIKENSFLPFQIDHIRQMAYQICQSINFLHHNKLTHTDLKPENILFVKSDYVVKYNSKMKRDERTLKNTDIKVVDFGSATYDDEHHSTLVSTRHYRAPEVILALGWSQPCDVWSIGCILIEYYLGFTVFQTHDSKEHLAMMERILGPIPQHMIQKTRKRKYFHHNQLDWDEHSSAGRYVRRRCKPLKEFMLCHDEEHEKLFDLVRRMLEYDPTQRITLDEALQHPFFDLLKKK
Experimental: as §1

Cc1ccc(C2=Nc3cccnc3S(=O)(=O)c3ccccc32)cc1 [TBPT, 6-(p-tolyl)benzo[f] pyrido[2,3-b][1,4] thiazepine 11,11-dioxide]
89%: remaining binding at 5 µM (ERK4; 5 μM) | remaining binding at 5 µM (MARK1; 5 μM)
95%: remaining binding at 10 µM (MTOR; 10 μM) | remaining binding at 10 µM (NEK6; 10 μM)
98%: remaining binding at 10 µM ([1]; 10 μM) | remaining binding at 5 µM (PIP5K1A; 5 μM) | remaining binding at 10 µM (CAMK1; 10 μM)
100%: remaining binding at 10 µM (TRKB; 10 μM) | remaining binding at 10 µM (HCK; 10 μM) | remaining binding at 10 µM (PIM3; 10 μM) | remaining binding at 5 µM (CLK2; 5 μM) | remaining binding at 10 µM (CLK2; 10 μM) | remaining binding at 5 µM (RIOK3; 5 μM) | remaining binding at 10 µM (RIOK3; 10 μM) | remaining binding at 10 µM (ERBB3; 10 μM) | remaining binding at 5 µM (CDC2L5; 5 μM) | remaining binding at 10 µM (MKNK1; 10 μM) | remaining binding at 10 µM (ERK4; 10 μM) | remaining binding at 5 µM (SNARK; 5 μM) | remaining binding at 10 µM (SNARK; 10 μM) | remaining binding at 10 µM ([2]; 10 μM) | remaining binding at 5 µM (PIP5K2C; 5 μM) | remaining binding at 10 µM (PIP5K2C; 10 μM) | remaining binding at 10 µM (MARK1; 10 μM) | remaining binding at 5 µM (DAPK3; 5 μM) | remaining binding at 10 µM (DAPK3; 10 μM) | remaining binding at 5 µM (MTOR; 5 μM) | remaining binding at 5 µM ([3]; 5 μM) | remaining binding at 10 µM ([3]; 10 μM) | remaining binding at 10 µM (MLK3; 10 μM) | remaining binding at 10 µM (CDC2L1; 10 μM) | remaining binding at 5 µM (MAP3K15; 5 μM) | remaining binding at 10 µM (MAP3K15; 10 μM) | remaining binding at 5 µM (TRKC; 5 μM) | remaining binding at 10 µM (PIP5K1A; 10 μM) | remaining binding at 10 µM (CDK7; 10 μM) | remaining binding at 10 µM (MST1R; 10 μM) | remaining binding at 10 µM (PIK3CA(E545K); 10 μM) | remaining binding at 5 µM (PIP5K2B; 5 μM) | remaining binding at 10 µM (PIP5K2B; 10 μM)
80%: remaining binding at 5 µM (MST1R; 5 μM)
45%: remaining binding at 5 µM (ERBB3; 5 μM)
83%: remaining binding at 5 µM (CDK7; 5 μM)
84%: remaining binding at 5 µM ([1]; 5 μM)
97%: remaining binding at 10 µM (CDC2L5; 10 μM)
92%: remaining binding at 5 µM (PRKX; 5 μM)
87%: remaining binding at 5 µM (MLK3; 5 μM)
70%: remaining binding at 10 µM (PRKX; 10 μM)
96%: remaining binding at 5 µM (TRKB; 5 μM) | remaining binding at 5 µM (PIM3; 5 μM) | remaining binding at 5 µM (NEK6; 5 μM) | remaining binding at 10 µM (TRKC; 10 μM) | remaining binding at 5 µM (CAMK1; 5 μM) | remaining binding at 10 µM (CLK4; 10 μM)
81%: remaining binding at 5 µM (PIK3CA(E545K); 5 μM)
79%: remaining binding at 5 µM ([2]; 5 μM)
93%: remaining binding at 5 µM (HCK; 5 μM) | remaining binding at 5 µM (CLK4; 5 μM)
99%: remaining binding at 5 µM (CDC2L1; 5 μM)
36%: remaining binding at 5 µM (MKNK1; 5 μM)
